The values that follow are results of earlier work, collected in US10995060B2, “Amorphous Trisodium Sacubitril Valsartan and process for its preparation” (priority 2016, dated 2021).

The conditions of data set [1]: for Crystalline state / polymorph stability after exposure: 80° C at 0% RH and 75% RH for 3 days; for Result after loading of the sample at 80° C./0% RH / Result after loading of the sample at 80° C./75% RH: solid form by X-ray powder analysis, 3 days.
For data set [2] the following is noted: crystal powder of Example 11 of WO 200206253.

Counter-ions that a name gives are not always drawn. Like-named read-outs stand apart in the source and are kept apart here.

As to `CCOC(=O)[C@H](C)C[C@@H](Cc1ccc(-c2ccccc2)cc1)NC(=O)CCC(=O)O` [calcium salt of sacubitril], in data set [1], the “Crystalline state / polymorph stability after exposure” value is reported as “did not change”, the “Result after loading of the sample at 80° C./0% RH” value was “Crystalline sample(form I)I” and the “Result after loading of the sample at 80° C./75% RH” value (“Result … at 80° C./75% RH” for short) was “Crystalline sample(form I)I”.

In the case of “Hydrate of valsartan disodium salt (2.4 ě 1.0 mole H2O)”, the Hygroscopicity result in data set [2] is given as “slightly hygroscopic”.

Take `CCOC(=O)[C@H](C)C[C@@H](Cc1ccc(-c2ccccc2)cc1)NC(=O)CCC(=O)[O-].[Na+]` [sodium salt of sacubitril]: in data set [1], the “Crystalline state / polymorph stability after exposure” value is on record as “high rate of polymorph instability”, the “Result after loading of the sample at 80° C./0% RH” value is on record as “Semicrystalline phase” and the “Result … at 80° C./75% RH” value is listed as “Amorphous sample”. Further, the “Result … at 80° C./75% RH” value in data set [1] (listed as sodium salt of Sacubitril) was “completely amorphous”.
